From ChEMBL document CHEMBL1201862, “PubChem BioAssay data set” (2004)
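Where inhibition never reached the appropriate level, the endpoint shown equals the highest concentration tested. Otherwise, values were interpolated linearly from a five-concentration, 48-hour dose response in 96-well plates. GI50 = concentration required for 50% inhibition of growth.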 The source made the active and inactive calls. Rule as the data show it: active = GI50 up to about 1.1 µM and inactive = higher.

Experiments:
Assay in all cases: inhibition of tumour cell growth, NCI panel, 48 h
CCRF-CEM = system: CCRF-CEM
HCT-116 = system: HCT-116
HCT-15 = system: HCT-15
HOP-18 = system: HOP-18
HOP-62 = system: HOP-62
HOP-92 = system: HOP-92
KM-20L2 = system: KM-20L2
LOX IMVI = system: LOX IMVI
M14 = system: M14
M19-MEL = system: M19-MEL
OVCAR-3 = system: OVCAR-3
SK-OV-3 = system: SK-OV-3
CAKI-1 = system: CAKI-1
MCF7 = system: MCF7
RPMI-8226 = system: RPMI-8226
SK-MEL-5 = system: SK-MEL-5
TK-10 = system: TK-10

Structure (SMILES)	GI50 (CCRF-CEM)	GI50 (HCT-116)	GI50 (HCT-15) [µM]	GI50 (HOP-18)	GI50 (HOP-62)	GI50 (HOP-92)	GI50 (KM-20L2)	GI50 (LOX IMVI)	GI50 (M14)	GI50 (M19-MEL)	GI50 (OVCAR-3)	GI50 (SK-OV-3)	GI50 (CAKI-1)	GI50 (MCF7)	GI50 (RPMI-8226)	GI50 (SK-MEL-5)	GI50 (TK-10)
Cc1cn(C2CC(O)C(CO)C2C)c(=O)[nH]c1=O (configuration not stated)	> 100 µM (inactive)	> 100 µM (inactive)	> 100	> 100 µM (inactive)	> 100 µM (inactive)	> 100 µM (inactive)	> 100 µM (inactive)	> 100 µM (inactive)	> 100 µM (inactive)	> 100 µM (inactive)	> 100 µM (inactive)	> 100 µM (inactive)	–	–	–	–	–
CC(C)=CCC/C(C)=C/CCC1(C)C=Cc2c(c3ccccc3oc2=O)O1 (configuration not stated)	38.5 µM (inactive)	14.8 µM (inactive)	16	17.3 µM (inactive)	13.2 µM (inactive)	12.2 µM (inactive)	19.4 µM (inactive)	18 µM (inactive)	–	17.3 µM (inactive)	18.1 µM (inactive)	27.3 µM (inactive)	17.2 µM (inactive)	16.5 µM (inactive)	18.2 µM (inactive)	14.7 µM (inactive)	–
CNS(=O)(=O)NN(C)S(=O)(=O)c1ccc(F)cc1	> 100 µM (inactive)	> 100 µM (inactive)	> 100	> 100 µM (inactive)	> 100 µM (inactive)	> 100 µM (inactive)	> 100 µM (inactive)	90.2 µM (inactive)	> 100 µM (inactive)	–	> 100 µM (inactive)	> 100 µM (inactive)	> 100 µM (inactive)	–	> 100 µM (inactive)	> 100 µM (inactive)	> 100 µM (inactive)
C/C(=N\NS(=O)(=O)c1ccccc1)c1ccccc1	> 100 µM (inactive)	> 100 µM (inactive)	> 100	> 100 µM (inactive)	> 100 µM (inactive)	> 100 µM (inactive)	> 100 µM (inactive)	> 100 µM (inactive)	–	–	> 100 µM (inactive)	> 100 µM (inactive)	> 100 µM (inactive)	> 94 µM (inactive)	> 100 µM (inactive)	> 100 µM (inactive)	–
C=C1C[C@@H]2C[C@@H](C)CC(O)[C@]2(CCCN)C1O (some centres not stated)	> 100 µM (inactive)	> 100 µM (inactive)	–	> 100 µM (inactive)	> 100 µM (inactive)	> 100 µM (inactive)	> 100 µM (inactive)	> 100 µM (inactive)	> 100 µM (inactive)	> 100 µM (inactive)	> 100 µM (inactive)	> 100 µM (inactive)	> 100 µM (inactive)	–	> 100 µM (inactive)	> 100 µM (inactive)	> 100 µM (inactive)
C=C(C)C(=O)O[C@H]1CC2=C[C@@H](C[C@@]3(C)O[C@@H]3[C@H]3OC(=O)C(=C)[C@@H]31)OC2=O [ELEPHANTOPIN]	–	1.16 µM (inactive)	0.927	4.33 µM (inactive)	52.5 µM (inactive)	1.13 µM (inactive)	4.69 µM (inactive)	0.31 µM (active)	–	2.49 µM (inactive)	1.2 µM (inactive)	11.5 µM (inactive)	1.86 µM (inactive)	1.14 µM (inactive)	–	4.29 µM (inactive)	–
COc1cc(O)c2c(c1)C(=O)c1cc(C)cc(O)c1C2=O [PHYSCION]	> 100 µM (inactive)	> 100 µM (inactive)	–	51.9 µM (inactive)	> 100 µM (inactive)	–	> 100 µM (inactive)	> 100 µM (inactive)	> 100 µM (inactive)	> 100 µM (inactive)	> 100 µM (inactive)	> 100 µM (inactive)	> 100 µM (inactive)	–	> 100 µM (inactive)	> 100 µM (inactive)	–
